From US12419877B2, “Solid forms of {[5-(3-chlorophenyl)-3-hydroxypyridine-2-carbonyl]amino}acetic acid, compositions, and uses thereof” (Akebia Therapeutics, Inc., priority 2013, dated 2025) come the findings set out here.

A short description of series [1]: Solid form stability in slurries. It counts as physicochemical. Particulars: slurries at high temperature.
A short description of series [2]: Dynamic Vapour Sorption (DVS) with XRPD re-analysis. It counts as physicochemical. The procedure: Dynamic Vapour Sorption (DVS) was performed on a DVS-1 dynamic vapour sorption balance by Surface Measurement Systems. Approximately 10-20 mg of sample was loaded into a wire mesh vapour sorption balance pan of the balance. The sample was subjected to a ramping profile from 20-90% relative humidity (RH) in 10% increments, maintaining the sample at each step until a stable weight had been achieved (99.5% step completion) or 1000 minutes had elapsed. After completion of the sorption cycle, the sample was dried using the same procedure, but all the way down to 0% RH and finally taken back to the starting point of 20% RH. The weight change during the sorption/desorption cycles were plotted, allowing for the hygroscopic nature of the sample to be determined. Following the DVS analysis, the solid was re-analysed by XRPD in order to determine whether there had been any change in physical form.

On to `O=C(O)CNC(=O)c1ncc(-c2cccc(Cl)c2)cc1O` [Form B, {[5-(3-chlorophenyl)-3-hydroxypyridine-2-carbonyl]amino}acetic acid], for which the solid form stability entry in series [1] is “metastable and can convert to Form A in slurries at high temperature”. Moreover, the “water sorption at 90% RH” value in series [2] (DVS, 90% RH) is on record as 0.33%. In series [2] (after DVS sorption/desorption cycle), the “XRPD analysis following DVS (change in physical form)” value is given as “no change in form”. For the same compound, the “hygroscopicity (DVS)” value in series [2] (judged from water sorption at 90% RH) was “non-hygroscopic”.
